Assay results: US20090011051A1, “Methods, Compositions and Articles of Manufacture for HIF Modulating Compounds” (priority 2006, published 2009)
Where two headings read alike, the source gives them in different places.

Tests used:
[1] = test system: nematodes (Caenorhabditis elegans); experiment: Survival of C. elegans in H2S after pre-treatment with H2S gas (Example 2); type: in vivo; conditions: air plus 200 ppm H2S
[2] = test system: rats; conditions: moderate levels, cited from earlier work
[3] = test system: rodents; conditions: H2S gas; cited from earlier work
[4] = test system: humans; conditions: chronic low-level exposure; cited from earlier work
[5] = test system: rats; conditions: cited from earlier work
[6] = test system: nematodes (Caenorhabditis elegans)
Method: Nematodes of each strain in the fourth larval stage were moved onto fresh nematode growth plates. […] The nematodes were removed the next morning and the percent surviving nematodes was determined.

[7] = extreme levels (500 ppm), followed by recovery; cited from earlier work
[8] = test system: humans; conditions: H2S gas; cited from earlier work
[9] = test system: humans; conditions: cited from earlier work

## S [Compound H2S, Hydrogen sulfide]
[1]; Egl-9 mutant nematodes
  percent surviving nematodes: survived
[1]; wild type nematodes raised in air
  percent surviving nematodes: unable to survive
[2]; immediately after the end of the exposure
  discriminated avoidance responses: inhibits discriminated avoidance responses
[2]
  learning of baited radial arm maze task: interferes with the ability of rats to learn a baited radial arm maze task
[3]
  LD50: approximately 700 ppm
[4]
  effects of chronic exposure: persistent impairments in balance and memory, as well as altered sensory motor functions
[5]; perinatal study, 80 ppm
  neuropathology and behavior of exposed rat pups: no neuropathological effects or altered motor activity, passive avoidance, or acoustic startle response
[5]; rats, 20 or 50 ppm, 7 hours per day from gestation through post-natal day 21
  cerebellar Purkinje cell morphology: longer dendritic branches with reduced aborization of cerebellar Purkinje cells
[6]; nematodes lacking the Egl-9 gene, air plus 100 ppm H2S, in contrast to wild type
  percent surviving nematodes: survived
[6]; nematodes lacking the Hif-1 gene, fourth larval stage, air plus 20 ppm H2S, removed next morning
  percent surviving nematodes: unable to survive
[6]; wild type nematodes, fourth larval stage, air plus 20 ppm H2S, removed next morning
  percent surviving nematodes: able to survive
[7]
  effect of acute exposure (knockdown effect): sudden collapse and unconsciousness
[8]
  LD50: approximately 700 ppm

## [C-]#[O+] [carbon monoxide, Carbon monoxide]
[9]; 50 ppm, humans
  symptoms: no symptoms
[9]; 200 ppm, within two-three hours
  symptoms: slight headache
[9]; 400 ppm, within one to two hours, may become widespread within three hours
  symptoms: frontal headache
[9]; 800 ppm, within 45 minutes
  symptoms: dizziness, nausea, and/or convulsions
[9]; 800 ppm, within two hours
  symptoms: insensible
[9]; around 1000 ppm, an organism, exposure for more than around 1-2 minutes
  lethality: can expire
